One assay deals with IPOHE. Briefly: Post-emergence foliar-applied weed control, greenhouse (Example I). In kind it is in vivo, Ipomoea hederacea Jacq. To be noted: 150 gai/ha. The source says:
(§1) Evaluation of Post-emergence Foliar-Applied Herbicidal Mixtures for Weed Control in Direct Seeded Rice
(§2) Seeds or nutlets of the desired test plant species were planted in a soil matrix prepared by mixing a loam or sandy loam soil (e.g., 28.6 percent silt, 18.8 percent clay, and 52.6 percent sand, with a pH of about 5.8 and an organic matter content of about 1.8 percent) and calcareous grit in an 80 to 20 ratio. The soil matrix was contained in plastic pots with a volume of 1 quart and a surface area of 83.6 square centimeters (cm^2). When required to ensure good germination and healthy plants, a fungicide treatment and/or other chemical or physical treatment was applied. The plants were grown for 8-22 days in a greenhouse with an approximate 14 h photoperiod which was maintained at about 29° C. during the day and 26° C. during the night. Nutrients (Peters Excel® 15-5-15 5-Ca 2-Mg and iron chelate) were applied in the irrigation solution as needed and water was added on a regular basis. Supplemental lighting was provided with overhead metal halide 1000-Watt lamps as necessary. The plants were employed for testing when they reached the first through fourth true leaf stage.
(§3) Treatments consisted of the acid or esters of 4-amino-3-chloro-5-fluoro-6-(4-chloro-2-fluoro-3-methoxy-phenyl)pyridine-2-carboxylic acid (Compound A), each formulated as an SC (suspension concentrate), and various herbicidal components alone and in combination. Forms of Compound A were applied on an acid equivalent basis.
(§4) Other herbicidal components were applied on an active ingredient basis and included 4-hydroxyphenyl pyruvate dioxygenase (HPPD)-inhibiting herbicides mesotrione formulated as Callisto®, sulcotrione formulated as Mikado®, pyrazolynate formulated as Sunbird® 10% GR, and benzobicyclon formulated as Benzobicyclon 3.5%.
(§5) Treatment requirements were calculated based upon the rates being tested, the concentration of active ingredient or acid equivalent in the formulation, and a 12 mL application volume at a rate of 187 L/ha.
(§6) For treatments comprised of formulated compounds, measured amounts of compounds were placed individually in 25 mL glass vials and diluted in a volume of 1.25% (v/v) Agri-Dex® crop oil concentrated to obtain 12× stock solutions. […] Application solutions were prepared by adding an appropriate amount of each stock solution (e.g., 1 mL) and diluted to the appropriate final concentrations with the addition of 10 mL of an aqueous mixture of 1.25% (v/v) crop oil concentrate so that the final spray solutions contained 1.25+/−0.05% (v/v) crop oil concentrate.
(§7) For treatments comprised of formulated and technical compounds, weighed amounts of the technical materials were placed individually in 25 mL glass vials and dissolved in a volume of 97:3 v/v acetone/DMSO to obtain 12× stock solutions, and measured amounts of the formulated compounds were placed individually in 25 mL glass vials and diluted in a volume of 1.5% (v/v) crop oil concentrate or water to obtain 12× stock solutions. […] Application solutions were prepared by adding an appropriate amount of each stock solution (e.g., 1 mL) and diluted to the appropriate final concentrations with the addition of an appropriate amount of an aqueous mixture of 1.5% (v/v) crop oil concentrate so that the final spray solutions contained 1.25% (v/v) crop oil concentrate. As required, additional water and/or 97:3 v/v acetone/DMSO was added to individual application solutions so that the final acetone and DMSO concentrations of the application solutions being compared were 8.1% and 0.25%, respectively.
(§8) All stock solutions and applications solutions were visually inspected for compound compatibility prior to application. Spray solutions were applied to the plant material with an overhead Mandel track sprayer equipped with a 8002E nozzles calibrated to deliver 187 L/ha over an application area of 0.503 m^2 at a spray height of 18 to 20 inches (46 to 50 cm) above average plant canopy height. […]

Assay [1] deals with ECHCG. Described as above. In kind it is in vivo, Echinochloa crusgalli (L.) Beauv.
From the text: as §1, §2, §3, §4, §5, §6, §7, §8

Assay [2] has as its system LEFCH. Described as above. In kind it is in vivo, Leptochloa chinensis (L.) Nees. The following applies: 150 gai/ha.
From the text: as §1
as §2, with “stage. […]” for “stage.”
as §5
For treatments comprised of formulated compounds, measured amounts of compounds were placed individually in 25 mL glass vials and diluted in a volume of 1.25% (v/v) Agri-Dex® crop oil concentrated to obtain 12× stock solutions. […]
For treatments comprised of formulated and technical compounds, weighed amounts of the technical materials were placed individually in 25 mL glass vials and dissolved in a volume of 97:3 v/v acetone/DMSO to obtain 12× stock solutions, and measured amounts of the formulated compounds were placed individually in 25 mL glass vials and diluted in a volume of 1.5% (v/v) crop oil concentrate or water to obtain 12× stock solutions. […]

The subject of assay [3] is ECHCG. As to the kind of experiment: In-water applied weed control, transplanted paddy rice, greenhouse (Example II). In kind it is in vivo, Echinochloa crusgalli (L.) Beauv. The procedure:
(§9) Evaluation of in-Water Applied Herbicidal Mixtures for Weed Control in Transplanted Paddy Rice
(§10) Weed seeds or nutlets of the desired test plant species were planted in puddled soil (mud) prepared by mixing a shredded, non-sterilized mineral soil (50.5 percent silt, 25.5 percent clay, and 24 percent sand, with a pH of about 7.6 and an organic matter content of about 2.9 percent) and water at a 1:1 volumetric ratio. The prepared mud was dispensed in 365 mL aliquots into 16-ounce (oz.) non-perforated plastic pots with a surface area of 86.59 square centimeters (cm^2) leaving a headspace of 3 centimeters (cm) in each pot. Mud was allowed to dry overnight prior to planting or transplanting. Rice seeds were planted in Sun Gro MetroMix® 306 planting mixture, which typically has a pH of 6.0 to 6.8 and an organic matter content of about 30 percent, in plastic plug trays. Seedlings at the second or third leaf stage of growth were transplanted into 840 mL of mud contained in 32-oz. non-perforated plastic pots with a surface area of 86.59 cm^2 4 days prior to herbicide application. The paddy was created by filling the headspace of the pots with 2.5 to 3 cm of water. When required to ensure good germination and healthy plants, a fungicide treatment and/or other chemical or physical treatment was applied. The plants were grown for 4-22 days in a greenhouse with an approximate 14 h photoperiod which was maintained at about 29′C during the day and 26° C. during the night. Nutrients were added as Osmocote® (19:6:12, N:P:K+ minor nutrients) at 2 g per 16-oz. pot and 4 g per 32-oz. pot. Water was added on a regular basis to maintain the paddy flood, and supplemental lighting was provided with overhead metal halide 1000-Watt lamps as necessary. The plants were employed for testing when they reached the first through fourth true leaf stage.
(§11) Treatments consisted of the acid or esters of 4-amino-3-chloro-5-fluoro-6-(4-chloro-2-fluoro-3-methoxy-phenyl)pyridine-2-carboxylic acid (compound A) each formulated as an SC (suspension concentrate) and various herbicidal components alone and in combination. Forms of compound A were applied on an acid equivalent basis.
(§12) Other herbicidal components were applied on an active ingredient basis and included 4-hydroxyphenyl pyruvate dioxygenase (HPPD)-inhibiting herbicides mesotrione formulated as Callisto®, sulcotrione formulated as Mikado®, pyrazolynate formulated as Sunbird® 10% GR, and benzobicyclon formulated as Benzobicyclon 3.5% or technical material.
(§13) Treatment requirements for each compound or herbicidal component were calculated based upon the rates being tested, the concentration of active ingredient or acid equivalent in the formulation, an application volume of 2 mL per component per pot, and an application area of 86.59 cm^2 per pot.
(§14) For formulated compounds, a measured amount was placed in an individual 100 or 200 mL glass vial and was dissolved in a volume of 1.25% (v/v) Agri-Dex® crop oil concentrate to obtain application solutions.
(§15) For technical grade compounds, a weighed amount was placed in an individual 100 to 200 mL glass vial and was dissolved in a volume of acetone to obtain concentrated stock solutions. […] The concentrated stock solutions obtained were diluted with an equivalent volume of an aqueous mixture containing 2.5% (v/v) crop oil concentrate so that the final application solutions contained 1.25% (v/v) crop oil concentrate.
(§16) Applications were made by injecting with a pipetter appropriate amounts of the application solutions, individually and sequentially, into the aqueous layer of the paddy. Control plants were treated in the same manner with the solvent blank. Applications were made so that all treated plant material received the same concentrations of acetone and crop oil concentrate.
(§17) The treated plants and control plants were placed in a greenhouse as described above and water was added as needed to maintain a paddy flood. […]

Another assay deals with ECHOR. Described as above. In kind it is in vivo, Echinochloa oryzoides (Ard.) Fritsch. The procedure: as §9, §10, §11, §12, §13, §14, §15, §16, §17
The next assay has as its system FIMMI. The description is as above. In kind it is in vivo, Fimbristylis miliacea (L.) Vahl. The procedure:
as §9, §10, §11, §12, §13, §14, §15, §16, §17

The subject of the next assay is SCPMA. The description is as above. In kind it is in vivo. The following applies: 37.5 gai/ha. The procedure: as §9, §10, §11, §12, §13, §14, §15, §16, §17
For another assay, the system named is ECHCO. The description is as above. In kind it is in vivo, Echinochloa colona (L.) Link. The procedure: as §9, §10
Treatments consisted of the acid or esters of 4-amino-3-chloro-5-fluoro-6-(4-chloro-2-fluoro-3-methoxy-phenyl)pyridine-2-carboxylic acid (compound A) each formulated as an SC (suspension concentrate) and various herbicidal components alone and in combination. Forms of compound A were applied on an acid equivalent basis. […]
as §13
(§18) For formulated compounds, a measured amount was placed in an individual 100 or 200 mL glass vial and was dissolved in a volume of 1.25% (v/v) Agri-Dex® crop oil concentrate to obtain application solutions. […]

For assay [4], the system named is LEFCH. Described as above. In kind it is in vivo, Leptochloa chinensis (L.) Nees. The procedure: as §9, §10, §11, §12, §13, §14, §15, §16, §17
Another assay relates to CYPRO. Described as above. In kind it is in vivo, Cyperus rotundus L. The procedure:
as §9, §10, §11, §12, §13, §14, §15, §16, §17

Another assay relates to SCPJU. The description is as above. In kind it is in vivo, Schoenoplectus juncoides (Roxb.) Palla. The procedure:
as §9
as §10, with “Water was added on a regular basis to maintain the paddy flood, and supplemental lighting was provided with overhead metal halide 1000-Watt lamps as necessary. The plants were employed for testing when they reached the first through fourth true leaf stage.” left out
as §13, §18

As to `Cc1ccc(S(=O)(=O)Oc2c(C(=O)c3ccc(Cl)cc3Cl)c(C)nn2C)cc1` [Pyrazolynate, (2,4-dichlorophenyl)[1,3-dimethyl-5-[[(4-methylphenyl)sulfonyl]oxy]-1H-pyrazol-4-yl]methanone, reference compound], in the assay with IPOHE, the “Visual Weed Control (%) - 21 DAA IPOHE Obs” value is on record as 10%. The “Visual Weed Control (%) - 22 DAA ECHCG Obs” value in the assay on ECHCG [1] (37.5 gai/ha) and in the assay on ECHCG [1] (75 gai/ha) was 0% each time. Moreover, the “Visual Weed Control (%) - 21 DAA ECHCG Obs” value with ECHCG [1] (150 gai/ha), in the assay on ECHCG [3] (37.5 gai/ha) and in the assay with ECHCG [3] (75 gai/ha) was 0% each time. Moreover, the figures for the “Visual Weed Control (%) - 21 DAA LEFCH Obs” value in the assay with LEFCH [2], in the assay with LEFCH [4] (37.5 gai/ha) and in the assay on LEFCH [4] (75 gai/ha) were 5%, 0% and 50%, respectively. Besides, the “Visual Weed Control (%) - 21 DAA ECHOR Obs” value with ECHOR (37.5 gai/ha) is listed as 0%; in the assay with ECHOR (75 gai/ha) it was 8%; in the assay on ECHOR (150 gai/ha), 13%. In addition, the “Visual Weed Control (%) - 21 DAA FIMMI Obs” value with FIMMI (37.5 gai/ha) and in the assay on FIMMI (75 gai/ha) was 0% throughout. Further, in the assay on SCPMA, the “Visual Weed Control (%) - 21 DAA SCPMA Obs” value was 0%. Moreover, the “Visual Weed Control (%) - 21 DAA ECHCO Obs” value in the assay on ECHCO (37.5 gai/ha) and with ECHCO (75 gai/ha) was 0% each time. Also, the “Visual Weed Control (%) - 21 DAA CYPRO Obs” value with CYPRO (37.5 gai/ha) and in the assay on CYPRO (75 gai/ha) was 0% each time. Further, the “Visual Weed Control (%) - 21 DAA SCPJU Obs” value in the assay on SCPJU (37.5 gai/ha) and in the assay with SCPJU (75 gai/ha) was 0% in each case.
